Laboratory results taken from patent US5372816A, “Trehalostatin and process for the preparation thereof” (Suntory Limited, priority 1989, dated 1994).

What was measured:
[1] = system: Trehalase (Aldrichina grahami); experiment: Enzyme inhibition spectrum: trehalase (Aldrichina grahami); format: biochemical
Procedure: 10 μl of an inhibitor solution and 10 μl of a trehalase solution (trehalase collected from Aldrichina grahami) were mixed. After 5 minutes incubation at 37° C., 80 μl of a 5 mM trehalose and 50 mM phosphate buffer solution (pH 6.5) was added, followed by an additional one-hour incubation at 37° C. Thereafter, 10 μl of a 50% trichloroacetic acid solution was added to terminate the reaction. Glucose formed in the reaction solution was determined by a new blood sugar test manufactured by Boehringer-Mannheim Ltd. The amount of the enzyme was such that absorbance of the wavelength ([…]) used in the glucose determination when conducted according to the above method without adding the inhibitor would become 1.0. The Trehalostatin concentration which can achieve 50% inhibition of enzyme (trehalase) activity in the above determination method was expressed as 1 unit/ml.
Each enzyme (200 μl) is incubated with Trehalostatin (0.01-50 μg) in 0.05 M acetate (pH 5-6) or phosphate (pH 6-7) buffer solution at 37° C. for 5 minutes. Then 20 μl of the resulting solution is collected and added with a substrate to a final concentration shown in the Table, making the total volume of the solution 100 μl. […]
(§1) (A) The glucose produced was determined by the new blood sugar test devised by Boehringer-Mannheim Ltd.

[2] = system: Gluco amylase (Rhizopus niveus); experiment: Enzyme inhibition spectrum: Gluco amylase (Rhizopus niveus); format: biochemical; design: key: ++: ID50 ≤ 1.0 μg; +: ID50 ≥ 1.0 μg; -: no inhibition; settings: enzyme 2 μg; pH 5.5, 0.5% starch; measuring method A
Procedure: (§2) Each enzyme (200 μl) is incubated with Trehalostatin (0.01-50 μg) in 0.05 M acetate (pH 5-6) or phosphate (pH 6-7) buffer solution at 37° C. for 5 minutes. Then 20 μl of the resulting solution is collected and added with a substrate to a final concentration shown in the Table, making the total volume of the solution 100 μl. The mixture is incubated at 37° C. for 10 minutes and then incubated in a boiling water bath for 3 minutes to terminate the reaction.
(§3) Determination of activity was made by measuring the increase of the product in the reaction system according to the following methods A-C.
(§4) The quantity of Trehalostatin which can effect 50% inhibition of enzyme activity under the above-described conditions was indicated as ID50.
as §1

[3] = molecular target: T1, Taka-amylase A (yeast) (Saccharomyces cerevisiae, UniProt P00724); experiment: Enzyme inhibition spectrum: Taka-amylase A (yeast), sucrose substrate; format: biochemical; design: key: ++: ID50 ≤ 1.0 μg; +: ID50 ≥ 1.0 μg; -: no inhibition; settings: enzyme 100 μg; pH 5.5, 0.1% sucrose; measuring method A
T1 sequence (P00724 20-532): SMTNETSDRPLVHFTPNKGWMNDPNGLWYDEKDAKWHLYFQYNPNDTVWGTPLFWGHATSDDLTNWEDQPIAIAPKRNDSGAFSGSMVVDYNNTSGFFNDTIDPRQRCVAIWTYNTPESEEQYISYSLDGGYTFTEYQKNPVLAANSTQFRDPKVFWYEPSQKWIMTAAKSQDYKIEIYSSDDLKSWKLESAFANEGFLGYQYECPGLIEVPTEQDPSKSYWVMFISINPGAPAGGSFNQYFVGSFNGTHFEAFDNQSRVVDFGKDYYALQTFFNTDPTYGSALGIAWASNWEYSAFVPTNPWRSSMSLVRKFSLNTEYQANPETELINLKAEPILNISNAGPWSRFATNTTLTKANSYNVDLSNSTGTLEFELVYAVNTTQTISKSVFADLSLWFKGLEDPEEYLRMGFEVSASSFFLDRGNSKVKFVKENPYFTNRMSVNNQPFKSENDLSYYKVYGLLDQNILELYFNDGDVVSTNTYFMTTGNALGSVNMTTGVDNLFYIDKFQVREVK
Procedure: as §2, §3, §4, §1

[4] = system: exo-β-1,3-glucanase; experiment: Enzyme inhibition spectrum: exo-β-1,3-glucanase; format: biochemical; design: key: ++: ID50 ≤ 1.0 μg; +: ID50 ≥ 1.0 μg; -: no inhibition; settings: enzyme 15 μg; pH 6.0, 0.1% laminarin; measuring method B
Procedure: as §2, §3, §4
(B) An amount of glucose produced was determined according to the method shown in D. R. Barras and B. A. Stone, Biochim. Biophys. Acta, 191, 329 (1969).

[5] = molecular target: T2, Taka-amylase A (Aspergillus oryzae, UniProt P0C1B3); experiment: Enzyme inhibition spectrum: Taka-amylase A, starch substrate; format: biochemical; design: key: ++: ID50 ≤ 1.0 μg; +: ID50 ≥ 1.0 μg; -: no inhibition; settings: enzyme 0.5 μg; pH 5.5, 0.5% starch; measuring method printed 69
T2 construct: purchased SANKYO Co., Ltd
Procedure: as §2, §3, §4

[6] = molecular target: T3, α-glycosidase (yeast) (Saccharomyces cerevisiae, UniProt P53341); experiment: Enzyme inhibition spectrum: α-glycosidase (yeast); format: biochemical; settings: enzyme 1 μg; pH 7.1, 5 mM P-nitrophenyl glycoside; measuring method A
T3 construct: purchased TOYOBO Co., Ltd; host or cells: yeast
T3 sequence (P53341 whole entry): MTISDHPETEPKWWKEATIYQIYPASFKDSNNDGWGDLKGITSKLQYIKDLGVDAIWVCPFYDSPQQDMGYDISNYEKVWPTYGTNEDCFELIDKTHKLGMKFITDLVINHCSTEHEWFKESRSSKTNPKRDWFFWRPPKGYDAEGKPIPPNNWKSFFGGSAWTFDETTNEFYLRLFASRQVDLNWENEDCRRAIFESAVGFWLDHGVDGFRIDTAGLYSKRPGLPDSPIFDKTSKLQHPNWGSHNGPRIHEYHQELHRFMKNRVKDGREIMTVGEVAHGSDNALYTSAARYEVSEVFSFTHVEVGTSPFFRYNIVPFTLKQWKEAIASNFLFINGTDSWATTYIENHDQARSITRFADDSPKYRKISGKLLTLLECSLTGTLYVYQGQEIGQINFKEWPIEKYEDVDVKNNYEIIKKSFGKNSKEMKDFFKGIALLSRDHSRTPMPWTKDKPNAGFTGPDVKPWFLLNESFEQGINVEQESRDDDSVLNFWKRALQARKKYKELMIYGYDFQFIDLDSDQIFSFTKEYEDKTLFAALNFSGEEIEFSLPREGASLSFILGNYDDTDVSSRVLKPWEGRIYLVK
Procedure: as §2, §3, §4, §1

[7] = Solubility of Trehalostatin; format: physicochemical
[8] = molecular target: T4, Trehalase (swine kidney) (Sus scrofa, UniProt I3LIR5); experiment: Enzyme inhibition spectrum: trehalase (swine kidney); format: biochemical; settings: enzyme 1.1 unit (nmol glucose/min); pH 6.5, 5 mM trehalase; measuring method A
T4 construct: purchased Sigma M8778; host or cells: swine kidney
T4 sequence (I3LIR5 24-583): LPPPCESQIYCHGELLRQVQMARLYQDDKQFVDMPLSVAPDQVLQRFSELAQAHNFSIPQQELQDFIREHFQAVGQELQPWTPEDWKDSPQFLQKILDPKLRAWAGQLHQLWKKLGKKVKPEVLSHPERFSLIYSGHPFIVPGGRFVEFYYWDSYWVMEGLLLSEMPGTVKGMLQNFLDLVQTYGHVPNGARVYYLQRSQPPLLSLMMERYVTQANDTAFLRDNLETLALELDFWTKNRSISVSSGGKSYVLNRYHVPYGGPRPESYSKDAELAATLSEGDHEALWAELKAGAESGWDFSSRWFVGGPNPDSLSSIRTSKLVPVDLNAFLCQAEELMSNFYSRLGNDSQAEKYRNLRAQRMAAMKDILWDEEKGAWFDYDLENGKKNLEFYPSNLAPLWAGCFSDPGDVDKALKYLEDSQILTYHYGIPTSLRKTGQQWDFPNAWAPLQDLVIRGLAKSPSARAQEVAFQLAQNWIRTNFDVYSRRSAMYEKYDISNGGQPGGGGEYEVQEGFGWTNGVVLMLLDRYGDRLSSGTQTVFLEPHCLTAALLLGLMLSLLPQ
Procedure: as §2, §3, §4, §1

[9] = molecular target: Bacterial liquefying amylase (Bacillus amyloliquefaciens, UniProt P00692); experiment: Enzyme inhibition spectrum: bacterial liquefying amylase; format: biochemical; design: key: ++: ID50 ≤ 1.0 μg; +: ID50 ≥ 1.0 μg; -: no inhibition; settings: enzyme 0.4 μg; pH 5.0, 0.5% starch; measuring method C
Bacterial liquefying amylase, sequence (P00692 32-514): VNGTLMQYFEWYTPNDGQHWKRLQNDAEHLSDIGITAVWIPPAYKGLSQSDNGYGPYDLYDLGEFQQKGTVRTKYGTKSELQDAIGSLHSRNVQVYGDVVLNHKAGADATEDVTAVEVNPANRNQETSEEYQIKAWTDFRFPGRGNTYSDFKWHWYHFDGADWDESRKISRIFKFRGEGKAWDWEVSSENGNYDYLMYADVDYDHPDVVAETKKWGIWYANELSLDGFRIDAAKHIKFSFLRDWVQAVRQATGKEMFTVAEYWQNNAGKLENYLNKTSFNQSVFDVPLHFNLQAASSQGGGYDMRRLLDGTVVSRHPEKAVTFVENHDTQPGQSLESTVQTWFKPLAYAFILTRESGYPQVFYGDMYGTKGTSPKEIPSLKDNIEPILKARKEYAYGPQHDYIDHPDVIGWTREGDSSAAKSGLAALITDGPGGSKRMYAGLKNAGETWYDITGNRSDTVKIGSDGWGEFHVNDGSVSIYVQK
Procedure: as §2, §3, §4
(§5) (C) The increase of an amount of reducing sugar produced was measured according to the method shown in J. A. Thoma et al., The Enzyme, 3rd. ed., Ch. 5, pp. 115-189 (1971).

[10] = molecular target: T5, Isoamylase (Pseudomonas amyloderamosa, UniProt P10342); experiment: Enzyme inhibition spectrum: isoamylase; format: biochemical; design: key: ++: ID50 ≤ 1.0 μg; +: ID50 ≥ 1.0 μg; -: no inhibition; settings: enzyme 100 μg; pH 5.5, 0.5% starch; measuring method C
T5 construct: purchased Shin Nippon Kagaku Co., Ltd
T5 sequence (P10342 27-776): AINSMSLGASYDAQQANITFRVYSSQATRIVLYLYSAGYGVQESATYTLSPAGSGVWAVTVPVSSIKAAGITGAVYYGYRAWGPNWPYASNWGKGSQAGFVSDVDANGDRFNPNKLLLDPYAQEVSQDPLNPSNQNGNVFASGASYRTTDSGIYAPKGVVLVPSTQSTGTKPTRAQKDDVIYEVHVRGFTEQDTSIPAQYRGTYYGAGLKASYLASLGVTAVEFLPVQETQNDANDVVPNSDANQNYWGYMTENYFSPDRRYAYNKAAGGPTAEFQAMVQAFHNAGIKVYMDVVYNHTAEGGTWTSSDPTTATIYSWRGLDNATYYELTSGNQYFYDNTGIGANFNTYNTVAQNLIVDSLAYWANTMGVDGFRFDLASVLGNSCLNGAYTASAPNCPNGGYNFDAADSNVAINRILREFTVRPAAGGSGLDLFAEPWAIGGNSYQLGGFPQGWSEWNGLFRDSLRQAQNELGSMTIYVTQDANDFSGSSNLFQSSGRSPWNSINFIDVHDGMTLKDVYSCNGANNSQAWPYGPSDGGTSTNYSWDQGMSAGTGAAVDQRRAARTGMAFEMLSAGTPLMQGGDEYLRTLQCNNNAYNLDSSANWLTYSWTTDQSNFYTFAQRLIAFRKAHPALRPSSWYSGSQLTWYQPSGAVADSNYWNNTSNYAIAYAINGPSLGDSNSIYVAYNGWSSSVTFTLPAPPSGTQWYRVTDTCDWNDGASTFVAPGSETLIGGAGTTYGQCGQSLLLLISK
Procedure: as §2, §3, §4, §5

[11] = system: avicelase (Asp. aculeatus); experiment: Enzyme inhibition spectrum: avicelase (Asp. aculeatus); format: biochemical; design: key: ++: ID50 ≤ 1.0 μg; +: ID50 ≥ 1.0 μg; -: no inhibition; settings: enzyme 2000 μg; pH 5.0, 0.5% avicel; measuring method C
Procedure: as §2, §3, §4, §5

[12] = system: Invertase (bovine colonic mucosa); experiment: Enzyme inhibition spectrum: invertase (bovine colonic mucosa); format: biochemical; design: key: ++: ID50 ≤ 1.0 μg; +: ID50 ≥ 1.0 μg; -: no inhibition; settings: enzyme 5000 μg; pH 6.0, 0.1% sucrose; measuring method A
Procedure: as §2, §3, §4, §1

[13] = system: Carboxymethyl-cellulase (Asp. aculeatus); experiment: Enzyme inhibition spectrum: carboxymethyl-cellulase (Asp. aculeatus); format: biochemical; design: key: ++: ID50 ≤ 1.0 μg; +: ID50 ≥ 1.0 μg; -: no inhibition; settings: enzyme 100 μg; pH 5.0, 0.5% CM cellulose; measuring method C
Procedure: as §2, §3, §4, §5

[14] = molecular target: T6, Trehalase (bovine colonic mucosa) (Bos taurus, UniProt E1B8N4); experiment: Enzyme inhibition spectrum: trehalase (bovine colonic mucosa); format: biochemical; settings: enzyme 2500 μg; pH 5.5, 5 mM trehalase; measuring method A
T6 construct: mucosal acetone powder Sigma (M2766); purchased Sigma M2766; host or cells: bovine colonic mucosa, acetone powder
T6 sequence (E1B8N4 24-579): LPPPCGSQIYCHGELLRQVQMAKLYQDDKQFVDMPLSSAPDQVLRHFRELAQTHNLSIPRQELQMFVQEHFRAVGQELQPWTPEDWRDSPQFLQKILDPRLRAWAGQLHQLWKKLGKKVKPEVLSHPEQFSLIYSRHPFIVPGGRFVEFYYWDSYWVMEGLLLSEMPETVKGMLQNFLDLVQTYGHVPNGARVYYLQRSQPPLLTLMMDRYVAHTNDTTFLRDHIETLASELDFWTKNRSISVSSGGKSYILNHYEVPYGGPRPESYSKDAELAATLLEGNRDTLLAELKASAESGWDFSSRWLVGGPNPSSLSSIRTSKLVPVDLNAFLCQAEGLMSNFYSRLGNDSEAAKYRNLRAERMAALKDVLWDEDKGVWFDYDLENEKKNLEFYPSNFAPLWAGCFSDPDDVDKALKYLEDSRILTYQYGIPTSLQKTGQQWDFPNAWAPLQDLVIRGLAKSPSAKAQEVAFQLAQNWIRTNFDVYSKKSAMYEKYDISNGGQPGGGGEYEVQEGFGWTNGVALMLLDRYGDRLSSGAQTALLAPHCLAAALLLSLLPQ
Procedure: as §2, §3, §4, §1

[15] = system: Gluco amylase (almond); experiment: Enzyme inhibition spectrum: Gluco amylase (almond), salicin substrate; format: biochemical; design: key: ++: ID50 ≤ 1.0 μg; +: ID50 ≥ 1.0 μg; -: no inhibition; settings: enzyme 10 μg; pH 5.0, 0.5% salicin; measuring method A
Procedure: as §2, §3, §4, §1

[16] = system: Trehalase (Chaetomium aureum); experiment: Enzyme inhibition spectrum: trehalase (Chaetomium aureum); format: biochemical; settings: enzyme 15 μg; pH 5.5, 5 mM trehalase; measuring method A
Procedure: as §2, §3, §4, §1

[17] = molecular target: T7, β-amylase (sweet potato) (Ipomoea batatas, UniProt P10537); experiment: Enzyme inhibition spectrum: β-amylase (sweet potato); format: biochemical; design: key: ++: ID50 ≤ 1.0 μg; +: ID50 ≥ 1.0 μg; -: no inhibition; settings: enzyme 12.5 μg; pH 5.0, 0.5% starch; measuring method C
T7 construct: purchased Sigma; host or cells: sweet potato
T7 sequence (P10537 whole entry): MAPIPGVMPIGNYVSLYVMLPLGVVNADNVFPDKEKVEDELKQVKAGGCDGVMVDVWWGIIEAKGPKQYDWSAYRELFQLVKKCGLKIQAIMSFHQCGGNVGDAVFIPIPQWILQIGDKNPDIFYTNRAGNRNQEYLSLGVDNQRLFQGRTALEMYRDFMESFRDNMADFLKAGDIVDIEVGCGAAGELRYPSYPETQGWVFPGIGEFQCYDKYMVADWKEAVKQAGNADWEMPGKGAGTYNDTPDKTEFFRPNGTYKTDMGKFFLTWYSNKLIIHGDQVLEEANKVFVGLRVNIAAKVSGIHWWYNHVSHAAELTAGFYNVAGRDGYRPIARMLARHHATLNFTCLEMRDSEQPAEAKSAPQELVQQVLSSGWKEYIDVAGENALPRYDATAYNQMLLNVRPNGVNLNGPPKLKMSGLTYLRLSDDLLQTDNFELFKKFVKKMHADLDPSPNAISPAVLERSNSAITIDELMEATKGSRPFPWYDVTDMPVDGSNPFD
Procedure: as §2, §3, §4, §5

[18] = molecular target: Bacterial saccharifying amylase (Bacillus subtilis, UniProt P00691); experiment: Enzyme inhibition spectrum: bacterial saccharifying amylase; format: biochemical; design: key: ++: ID50 ≤ 1.0 μg; +: ID50 ≥ 1.0 μg; -: no inhibition; settings: enzyme 4 μg; pH 5.0, 0.5% starch; measuring method C
Bacterial saccharifying amylase, sequence (P00691 42-659): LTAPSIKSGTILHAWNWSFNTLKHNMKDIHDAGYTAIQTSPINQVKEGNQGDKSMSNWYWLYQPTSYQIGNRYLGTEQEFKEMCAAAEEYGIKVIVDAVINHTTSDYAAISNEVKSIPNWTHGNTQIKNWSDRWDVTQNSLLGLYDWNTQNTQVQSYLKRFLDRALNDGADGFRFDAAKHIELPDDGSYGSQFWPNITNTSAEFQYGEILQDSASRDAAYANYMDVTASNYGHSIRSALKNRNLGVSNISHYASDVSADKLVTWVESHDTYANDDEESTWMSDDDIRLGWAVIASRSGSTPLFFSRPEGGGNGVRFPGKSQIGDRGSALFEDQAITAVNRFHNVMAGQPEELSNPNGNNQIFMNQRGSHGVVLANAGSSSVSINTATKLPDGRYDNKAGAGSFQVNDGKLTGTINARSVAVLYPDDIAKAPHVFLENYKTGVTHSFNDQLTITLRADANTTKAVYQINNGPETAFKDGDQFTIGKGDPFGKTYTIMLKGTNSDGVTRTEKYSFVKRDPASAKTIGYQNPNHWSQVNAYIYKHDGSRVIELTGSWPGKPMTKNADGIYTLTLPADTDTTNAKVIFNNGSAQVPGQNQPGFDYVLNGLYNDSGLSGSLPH
Procedure: as §2, §3, §4, §5

[19] = molecular target: T8, β-glycosidase (Asp. aculeatus) (Aspergillus aculeatus, UniProt P48825); experiment: Enzyme inhibition spectrum: β-glycosidase (Asp. aculeatus); format: biochemical; settings: enzyme 15 μg; pH 5.0, 0.5% salicin; measuring method A
T8 construct: a crude enzyme (prepared by University of Osaka Prefecture); host or cells: Aspergillus aculeatus
T8 sequence (P48825 20-860): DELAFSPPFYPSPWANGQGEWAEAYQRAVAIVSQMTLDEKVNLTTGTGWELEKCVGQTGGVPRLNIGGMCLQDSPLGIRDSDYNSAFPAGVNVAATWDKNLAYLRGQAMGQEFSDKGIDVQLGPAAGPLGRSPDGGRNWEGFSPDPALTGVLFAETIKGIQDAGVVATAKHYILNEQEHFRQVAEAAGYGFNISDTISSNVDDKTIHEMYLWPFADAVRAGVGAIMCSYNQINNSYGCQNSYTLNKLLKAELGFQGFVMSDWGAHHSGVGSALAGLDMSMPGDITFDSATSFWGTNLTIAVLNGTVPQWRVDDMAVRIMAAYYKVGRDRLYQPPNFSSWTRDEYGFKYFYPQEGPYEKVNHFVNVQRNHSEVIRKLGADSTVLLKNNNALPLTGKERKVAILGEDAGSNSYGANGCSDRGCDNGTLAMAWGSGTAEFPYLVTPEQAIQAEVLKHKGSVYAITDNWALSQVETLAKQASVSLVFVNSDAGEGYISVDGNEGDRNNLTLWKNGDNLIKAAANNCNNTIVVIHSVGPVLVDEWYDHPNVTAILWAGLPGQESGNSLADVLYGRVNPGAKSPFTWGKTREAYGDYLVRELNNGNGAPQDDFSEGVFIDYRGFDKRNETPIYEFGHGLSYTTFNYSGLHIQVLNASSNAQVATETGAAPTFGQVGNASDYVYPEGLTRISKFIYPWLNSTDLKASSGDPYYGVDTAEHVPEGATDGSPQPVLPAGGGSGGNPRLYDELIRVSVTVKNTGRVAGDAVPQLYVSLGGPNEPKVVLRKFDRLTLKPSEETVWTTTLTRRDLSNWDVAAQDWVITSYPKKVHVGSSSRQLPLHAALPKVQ
Procedure: as §2, §3, §4, §1

Structure (SMILES): OC[C@H]1O[C@H](N=C2NC3C(O2)C(O)C(O)C3(O)CO)[C@H](O)[C@@H](O)[C@@H]1O (stereo partly drawn) [Trehalostatin]
- Action (ID50) ([1]; enzyme 24 unit (nmol glucose/min), pH 5.5, 5 mM trehalase, measuring method A): ++ (ID50 ≤ 1.0 μg)
- inhibitory effect against trehalase in insects ([1]; trehalase in insects, especially Aldrichina grahami, statement in words): effective inhibitory effect against trehalase in insects, especially in Aldrichina grahami, even at a very low concentration
- Action (ID50) [2]: -
- Action (ID50) [3]: -
- Action (ID50) [4]: -
- Action (ID50) [5]: -
- Action (ID50) [6]: + (ID50 ≥ 1.0 μg)
- Solubility ([7]; in hexane, benzene, ethers and petroleum ether): hardly or only slightly soluble
- Solubility ([7]; in water): soluble in water
- Action (ID50) [8]: + (ID50 ≥ 1.0 μg)
- Action (ID50) [9]: -
- Action (ID50) [10]: -
- Action (ID50) [11]: -
- Action (ID50) [12]: -
- Action (ID50) [13]: -
- Action (ID50) [14]: + (ID50 ≥ 1.0 μg)
- Action (ID50) [15]: -
- Action (ID50) [16]: + (ID50 ≥ 1.0 μg)
- Action (ID50) [17]: -
- Action (ID50) [18]: -
- Action (ID50) [19]: + (ID50 ≥ 1.0 μg)
